Experimental data as given in patent US12077503B2, “Substituted cyclic amides and their use as herbicides” (FMC CORPORATION, priority 2015, dated 2024).

Key:
Format in all cases: in vivo
[1] = system: giant foxtail (Setaria faberii); assay: Test A preemergence; settings: Setaria faberi, pre-emergence, 240 h, 0 to 100 scale where 0 is no effect and 100 is complete control, read-out: Foxtail, Giant plant response rating; for pest or weed control at 31 g/ha: 31 g ai/ha, Preemergence; for pest or weed control at 125 g/ha: 125 g ai/ha, preemergence, approx. 10 d
How it was run: (§1)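 Preemergence directed soil spray on seeded pots, or postemergence application to plants 2–10 cm, one- to two-leaf. Solvent mixture non-phytotoxic, with surfactant. Scored ~10 d later, visually, 0–100 vs untreated.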

[2] = system: Kochia (Kochia scoparia); assay: Test A preemergence; settings: Bassia scoparia, pre-emergence, 240 h, 0 to 100 scale where 0 is no effect and 100 is complete control, read-out: Kochia plant response rating; for pest or weed control at 31 g/ha: 31 g ai/ha, Preemergence; for pest or weed control at 125 g/ha: 125 g ai/ha, preemergence, approx. 10 d
How it was run: as §1

[3] = system: barnyardgrass (Echinochloa crus-galli); assay: Test A preemergence; settings: Echinochloa crus-galli, pre-emergence, 240 h, 0 to 100 scale where 0 is no effect and 100 is complete control, read-out: Barnyardgrass plant response rating; for pest or weed control at 31 g/ha: 31 g ai/ha, Preemergence; for pest or weed control at 125 g/ha: 125 g ai/ha, preemergence, approx. 10 d
How it was run: as §1

[4] = system: ragweed (common ragweed, Ambrosia elatior); assay: Test A preemergence; settings: Ambrosia artemisiifolia, pre-emergence, 240 h, 0 to 100 scale where 0 is no effect and 100 is complete control, read-out: Ragweed plant response rating; for pest or weed control at 31 g/ha: 31 g ai/ha, Preemergence; for pest or weed control at 125 g/ha: 125 g ai/ha, preemergence, approx. 10 d
How it was run: as §1

[5] = system: ryegrass, Italian (Italian ryegrass, Lolium multiflorum); assay: Test A preemergence; settings: Lolium multiflorum, pre-emergence, 240 h, 0 to 100 scale where 0 is no effect and 100 is complete control, read-out: Ryegrass, Italian plant response rating; for pest or weed control at 31 g/ha: 31 g ai/ha, Preemergence; for pest or weed control at 125 g/ha: 125 g ai/ha, preemergence, approx. 10 d
How it was run: as §1

[6] = system: pigweed (Amaranthus retroflexus); assay: Test A preemergence; settings: Amaranthus retroflexus, pre-emergence, 240 h, 0 to 100 scale where 0 is no effect and 100 is complete control, read-out: Pigweed plant response rating; for pest or weed control at 31 g/ha: 31 g ai/ha, Preemergence; for pest or weed control at 125 g/ha: 125 g ai/ha, preemergence, approx. 10 d
[7] = system: blackgrass (Alopecurus myosuroides); assay: Test A postemergence; settings: Alopecurus myosuroides, post-emergence, 240 h; for pest or weed control at 125 g/ha: 125 g ai/ha, postemergence, visual injury on 0 to 100 scale (0 no effect, 100 complete control), approx. 10 d, read-out: Blackgrass plant response rating; for pest or weed control at 31 g/ha: Postemergence, 31 g ai/ha, visual injury after approx. 10 d, 0 to 100 scale, 0 no effect, 100 complete control, read-out: Plant response rating, Blackgrass
How it was run: as §1

[8] = system: giant foxtail (Setaria faberii); assay: Test A postemergence; settings: Setaria faberi, post-emergence, 240 h; for pest or weed control at 125 g/ha: 125 g ai/ha, postemergence, visual injury on 0 to 100 scale (0 no effect, 100 complete control), approx. 10 d, read-out: Foxtail, Giant plant response rating; for pest or weed control at 31 g/ha: Postemergence, 31 g ai/ha, visual injury after approx. 10 d, 0 to 100 scale, 0 no effect, 100 complete control, read-out: Plant response rating, Foxtail, Giant
How it was run: as §1

[9] = system: Kochia (Kochia scoparia); assay: Test A postemergence; settings: Bassia scoparia, post-emergence, 240 h; for pest or weed control at 125 g/ha: 125 g ai/ha, postemergence, visual injury on 0 to 100 scale (0 no effect, 100 complete control), approx. 10 d, read-out: Kochia plant response rating; for pest or weed control at 31 g/ha: Postemergence, 31 g ai/ha, visual injury after approx. 10 d, 0 to 100 scale, 0 no effect, 100 complete control, read-out: Plant response rating, Kochia
How it was run: as §1

[10] = system: barnyardgrass (Echinochloa crus-galli); assay: Test A postemergence; settings: Echinochloa crus-galli, post-emergence, 240 h; for pest or weed control at 125 g/ha: 125 g ai/ha, postemergence, visual injury on 0 to 100 scale (0 no effect, 100 complete control), approx. 10 d, read-out: Barnyardgrass plant response rating; for pest or weed control at 31 g/ha: Postemergence, 31 g ai/ha, visual injury after approx. 10 d, 0 to 100 scale, 0 no effect, 100 complete control, read-out: Plant response rating, Barnyardgrass
How it was run: as §1

[11] = system: ragweed (common ragweed, Ambrosia elatior); assay: Test A postemergence; settings: Ambrosia artemisiifolia, post-emergence, 240 h; for pest or weed control at 125 g/ha: 125 g ai/ha, postemergence, visual injury on 0 to 100 scale (0 no effect, 100 complete control), approx. 10 d, read-out: Ragweed plant response rating; for pest or weed control at 31 g/ha: Postemergence, 31 g ai/ha, visual injury after approx. 10 d, 0 to 100 scale, 0 no effect, 100 complete control, read-out: Plant response rating, Ragweed
How it was run: as §1

[12] = system: wheat (Triticum aestivum); assay: Test A postemergence; settings: Triticum aestivum, post-emergence, 240 h; for plant injury at 125 g/ha: 125 g ai/ha, postemergence, visual injury on 0 to 100 scale (0 no effect, 100 complete control), approx. 10 d, read-out: Wheat plant response rating; for plant injury at 31 g/ha: Postemergence, 31 g ai/ha, visual injury after approx. 10 d, 0 to 100 scale, 0 no effect, 100 complete control, read-out: Plant response rating, Wheat
How it was run: as §1

[13] = system: ryegrass, Italian (Italian ryegrass, Lolium multiflorum); assay: Test A postemergence; settings: Lolium multiflorum, post-emergence, 240 h; for pest or weed control at 125 g/ha: 125 g ai/ha, postemergence, visual injury on 0 to 100 scale (0 no effect, 100 complete control), approx. 10 d, read-out: Ryegrass, Italian plant response rating; for pest or weed control at 31 g/ha: Postemergence, 31 g ai/ha, visual injury after approx. 10 d, 0 to 100 scale, 0 no effect, 100 complete control, read-out: Plant response rating, Ryegrass, Italian
How it was run: as §1

[14] = system: corn (Zea mays); assay: Test A postemergence; settings: Zea mays, post-emergence, 240 h; for plant injury at 125 g/ha: 125 g ai/ha, postemergence, visual injury on 0 to 100 scale (0 no effect, 100 complete control), approx. 10 d, read-out: Corn plant response rating; for Corn plant response rating (crop injury, 0 = no effect, 100 = complete kill) at 31 g/ha: Postemergence, 31 g ai/ha, visual injury after approx. 10 d, 0 to 100 scale, 100 complete control
How it was run: as §1

[15] = system: pigweed (Amaranthus retroflexus); assay: Test A postemergence; settings: Amaranthus retroflexus, post-emergence, 240 h; for pest or weed control at 125 g/ha: 125 g ai/ha, postemergence, visual injury on 0 to 100 scale (0 no effect, 100 complete control), approx. 10 d, read-out: Pigweed plant response rating; for pest or weed control at 31 g/ha: Postemergence, 31 g ai/ha, visual injury after approx. 10 d, 0 to 100 scale, 0 no effect, 100 complete control, read-out: Plant response rating, Pigweed
How it was run: as §1

[16] = system: Galium (catchweed bedstraw, Galium aparine); assay: Test A postemergence; settings: Galium, post-emergence, 240 h; for pest or weed control at 125 g/ha: 125 g ai/ha, postemergence, visual injury on 0 to 100 scale (0 no effect, 100 complete control), approx. 10 d, read-out: Galium plant response rating; for pest or weed control at 31 g/ha: Postemergence, 31 g ai/ha, visual injury after approx. 10 d, 0 to 100 scale, 0 no effect, 100 complete control, read-out: Plant response rating, Galium
How it was run: as §1

[17] = system: barnyardgrass (Echinochloa crus-galli); assay: Test B flooded paddy test; settings: Echinochloa crus-galli, 250 g ai/ha, Flood; 0 to 100 scale where 0 is no effect and 100 is complete control; read-out: Barnyardgrass plant response rating
How it was run: (§2)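 Greenhouse paddy pots with 2-leaf stage plants received compound by direct addition to floodwater 3 cm deep, kept at that level. Scored visually at 13–15 d versus controls (0 no effect; 100 complete control).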

[18] = system: ducksalad (Heteranthera limosa); assay: Test B flooded paddy test; settings: Heteranthera limosa, 250 g ai/ha, Flood; 0 to 100 scale where 0 is no effect and 100 is complete control; read-out: Ducksalad plant response rating
How it was run: as §2

[19] = system: sedge, umbrella (small-flower umbrella sedge, Cyperus difformis); assay: Test B flooded paddy test; settings: Cyperus difformis, 250 g ai/ha, Flood; 0 to 100 scale where 0 is no effect and 100 is complete control; read-out: Sedge, Umbrella plant response rating
How it was run: as §2

[20] = system: rice (Oryra sativa); assay: Test B flooded paddy test; settings: Oryza sativa, 250 g ai/ha, Flood; 0 to 100 scale where 0 is no effect and 100 is complete control; read-out: Rice plant response rating
How it was run: as §2

## O=C(Nc1ccc(F)c(F)c1F)[C@H]1C(=O)N(O)CC[C@@H]1c1ccc(C(F)(F)F)cc1 [Compound 1108]
[1]
  pest or weed control at 31 g/ha: 0%
  pest or weed control at 125 g/ha: 0%
[2]
  pest or weed control at 31 g/ha: 0%
  pest or weed control at 125 g/ha: 0%
[3]
  pest or weed control at 31 g/ha: 0%
  pest or weed control at 125 g/ha: 0%
[4]
  pest or weed control at 31 g/ha: 0%
  pest or weed control at 125 g/ha: 0%
[5]
  pest or weed control at 31 g/ha: 0%
  pest or weed control at 125 g/ha: 0%
[6]
  pest or weed control at 31 g/ha: 0%
  pest or weed control at 125 g/ha: 0%
[7]
  pest or weed control at 125 g/ha: 0%
  pest or weed control at 31 g/ha: 0%
[8]
  pest or weed control at 125 g/ha: 0%
  pest or weed control at 31 g/ha: 0%
[9]
  pest or weed control at 125 g/ha: 0%
  pest or weed control at 31 g/ha: 0%
[10]
  pest or weed control at 125 g/ha: 0%
  pest or weed control at 31 g/ha: 0%
[11]
  pest or weed control at 125 g/ha: 0%
  pest or weed control at 31 g/ha: 0%
[12]
  plant injury at 125 g/ha: 0%
  plant injury at 31 g/ha: 0%
[13]
  pest or weed control at 125 g/ha: 0%
  pest or weed control at 31 g/ha: 0%
[14]
  plant injury at 125 g/ha: 0%
  Corn plant response rating (crop injury, 0 = no effect, 100 = complete kill) at 31 g/ha: 0%
[15]
  pest or weed control at 125 g/ha: 0%
  pest or weed control at 31 g/ha: 0%
[16]
  pest or weed control at 125 g/ha: 0%
  pest or weed control at 31 g/ha: 0%
[17]
  pest or weed control at 250 g/ha: 40%
[18]
  pest or weed control at 250 g/ha: 85%
[19]
  pest or weed control at 250 g/ha: 75%
[20]
  pest or weed control at 250 g/ha: 20%

## CN1C[C@H](c2ccc(C(F)(F)F)nc2)[C@@](C)(C(=O)Nc2cccc(F)c2F)C1=O [Compound 1109]
[1]
  pest or weed control at 31 g/ha: 100%
  pest or weed control at 125 g/ha: 100%
[2]
  pest or weed control at 31 g/ha: 0%
  pest or weed control at 125 g/ha: 70%
[3]
  pest or weed control at 31 g/ha: 100%
  pest or weed control at 125 g/ha: 100%
[4]
  pest or weed control at 31 g/ha: 0%
  pest or weed control at 125 g/ha: 50%
[5]
  pest or weed control at 31 g/ha: 60%
  pest or weed control at 125 g/ha: 80%
[6]
  pest or weed control at 31 g/ha: 70%
  pest or weed control at 125 g/ha: 90%
[7]
  pest or weed control at 125 g/ha: 40%
  pest or weed control at 31 g/ha: 20%
[8]
  pest or weed control at 125 g/ha: 90%
  pest or weed control at 31 g/ha: 70%
[9]
  pest or weed control at 125 g/ha: 70%
  pest or weed control at 31 g/ha: 20%
[10]
  pest or weed control at 125 g/ha: 100%
  pest or weed control at 31 g/ha: 90%
[11]
  pest or weed control at 125 g/ha: 50%
  pest or weed control at 31 g/ha: 0%
[12]
  plant injury at 125 g/ha: 60%
  plant injury at 31 g/ha: 30%
[13]
  pest or weed control at 125 g/ha: 50%
  pest or weed control at 31 g/ha: 0%
[14]
  plant injury at 125 g/ha: 80%
  Corn plant response rating (crop injury, 0 = no effect, 100 = complete kill) at 31 g/ha: 40%
[15]
  pest or weed control at 125 g/ha: 60%
  pest or weed control at 31 g/ha: 20%
[16]
  pest or weed control at 125 g/ha: 50%
  pest or weed control at 31 g/ha: 30%
[17]
  pest or weed control at 250 g/ha: 85%
[18]
  pest or weed control at 250 g/ha: 90%
[19]
  pest or weed control at 250 g/ha: 0%
[20]
  pest or weed control at 250 g/ha: 50%
